Source: patent EP3262942A1, “SELENODIARYLS FOR USE AS MICROBICIDE OR AS MEDICINE” (Evonik Degussa GmbH, priority 2016, dated 2018)

Legend:
[1] = system: M. grisea H2O; test: microbe, parasite or virus in culture; format: cell-based, Magnaporthe grisea; settings: Pyricularia grisea, H2O, 24 h, read-out: Aktivität gegenüber M. grisea H2O
[2] = system: P. infestans; test: microbe, parasite or virus in culture; format: cell-based, Phytophthora infestans; settings: for inhibition of growth at 5 µg/mL / inhibition of growth at 10 µg/mL / inhibition of growth at 25 µg/mL / inhibition of growth at 50 µg/mL: Phytophthora infestans, 24 h, read-out: Aktivität gegenüber P. infestans
[3] = system: M. grisea CM; test: microbe, parasite or virus in culture; format: cell-based, Magnaporthe grisea; settings: Pyricularia grisea, 24 h, read-out: Aktivität gegenüber M. grisea CM
[4] = system: Penicillium notatum; test: Growth test in microtiter plates, HA medium, 24 h, visual evaluation; format: cell-based; design: key: +: kein Wachstum im Vergleich zur Wachstumskontrolle; -: Wachstum wie Wachstumskontrolle
[5] = system: Botrytis cinerea; test: microbe, parasite or virus in culture; format: cell-based; settings: for inhibition of growth at 5 µg/mL / inhibition of growth at 10 µg/mL / inhibition of growth at 25 µg/mL / inhibition of growth at 50 µg/mL: Botrytis cinerea, 24 h, read-out: Aktivität gegenüber B. cinerea
[6] = system: Paecilomyces variotii; test: Growth test in microtiter plates, HA medium, 24 h, visual evaluation; format: cell-based; design: key: +: kein Wachstum im Vergleich zur Wachstumskontrolle; -: Wachstum wie Wachstumskontrolle
[7] = system: Setaria italica; test: Crop plant growth test, seeds on filter discs, 4 days, visual evaluation; format: in vivo
Description: (§1) Testsubstanzen und Kontrollen werden auf Filterrondellen in Mikrotiterplatten (48 well) vorgelegt und das verwendete Lösungsmittel (DMSO) über Lyophilisation entfernt. Anschließend werden ca. 12 Samen pro Vertiefung (Setaria italical Lepidium sativum) zugeben, mit 200 µl sterilem Leitungswasser pro Vertiefung versetzt, mit einem Deckel versehen und in einer feuchten Kammer für 4 Tage im Pflanzenbrutschrank inkubiert (16h-Licht-8h-Dunkel-Rhythmus). Die Auswertung des Tests erfolgt optisch (+: mind. 75 % Wachstumshemmung im Vergleich zur Kontrolle, -: weniger als 75 % Wachstumshemmung im Vergleich zur Kontrolle.

[8] = system: Lepidium sativum; test: as above; format: in vivo
Description: as §1

[9] = system: Mucor miehei; test: Growth test in microtiter plates, HA medium, 24 h, visual evaluation; format: cell-based; design: key to Aktivität gegenüber M. miehei: +: kein Wachstum im Vergleich zur Wachstumskontrolle; -: Wachstum wie Wachstumskontrolle
[10] = system: Candida albicans; test: as above; format: cell-based; design: key: +: kein Wachstum im Vergleich zur Wachstumskontrolle; -: Wachstum wie Wachstumskontrolle

Row | Structure (SMILES) | inhibition of growth at 5 µg/mL [1] [%] | inhibition of growth at 10 µg/mL [1] [%] | inhibition of growth at 25 µg/mL [1] [%] | inhibition of growth at 50 µg/mL [1] [%] | inhibition of growth at 5 µg/mL [2] [%] | inhibition of growth at 10 µg/mL [2] [%] | inhibition of growth at 25 µg/mL [2] [%] | inhibition of growth at 50 µg/mL [2] [%] | inhibition of growth at 5 µg/mL [3] [%] | inhibition of growth at 10 µg/mL [3] [%] | inhibition of growth at 25 µg/mL [3] [%] | inhibition of growth at 50 µg/mL [3] [%] | Aktivität gegenüber P. notatum ([4]; 10µg/mL) | Aktivität gegenüber P. notatum ([4]; 50µg/mL) | inhibition of growth at 5 µg/mL [5] [%] | inhibition of growth at 10 µg/mL [5] [%] | inhibition of growth at 25 µg/mL [5] [%] | inhibition of growth at 50 µg/mL [5] [%] | Aktivität gegenüber P. variotii ([6]; 10µg/mL) | Aktivität gegenüber P. variotii ([6]; 50µg/mL) | also measured
1 | Cc1cc(C)c(O)c([Se]c2c(C)c(C)cc(C)c2O)c1C [Verbindung 17, Bis(2-hydroxy-3,5,6-trimethylphenyl)selen] | 0 to 25 | 0 to 25 | 0 to 25 | 0 to 25 | 0 to 25 | 25 to 50 | 25 to 50 | 25 to 50 | 0 to 25 | 0 to 25 | 50 to 75 | 50 to 75 | - | - | 0 to 25 | 0 to 25 | 0 to 25 | 0 to 25 | - | - | Aktivität gegenüber Nutzpflanzen: S. italica ([7]; 10µg/R): - (weniger als 75 % Wachstumshemmung im Vergleich zur Kontrolle); Aktivität gegenüber Nutzpflanzen: S. italica ([7]; 20µg/R): - (weniger als 75 % Wachstumshemmung im Vergleich zur Kontrolle); Aktivität gegenüber Nutzpflanzen: S. italica ([7]; 50µg/R): + (mind. 75 % Wachstumshemmung im Vergleich zur Kontrolle); Aktivität gegenüber Nutzpflanzen: L. sativum ([8]; 10µg/R): - (weniger als 75 % Wachstumshemmung im Vergleich zur Kontrolle); Aktivität gegenüber Nutzpflanzen: L. sativum ([8]; 20µg/R): - (weniger als 75 % Wachstumshemmung im Vergleich zur Kontrolle); Aktivität gegenüber Nutzpflanzen: L. sativum ([8]; 50µg/R): - (weniger als 75 % Wachstumshemmung im Vergleich zur Kontrolle); Aktivität gegenüber M. miehei ([9]; 10µg/mL): -; Aktivität gegenüber M. miehei ([9]; 50µg/mL): -; Aktivität gegenüber C. albicans ([10]; 10µg/mL): -; Aktivität gegenüber C. albicans ([10]; 50µg/mL): -
2 | Cc1c(Cl)cc(C(C)C)c(O)c1[Se]c1c(C)c(Cl)cc(C(C)C)c1O [Verbindung 21, Bis(3-chlor-6-hydroxy-5-isopropyl-2-methylphenyl)selen] | 25 to 50 | > 75 | > 75 | > 75 | 0 to 25 | 0 to 25 | 0 to 25 | 0 to 25 | 50 to 75 | > 75 | > 75 | > 75 | - | - | 0 to 25 | 0 to 25 | 0 to 25 | 0 to 25 | - | - | Wirksamkeit gegenüber P. infestans ([2]; […]): keine Wirkung; Aktivität gegenüber Nutzpflanzen: S. italica ([7]; 10µg/R): - (weniger als 75 % Wachstumshemmung im Vergleich zur Kontrolle); Aktivität gegenüber Nutzpflanzen: S. italica ([7]; 20µg/R): - (weniger als 75 % Wachstumshemmung im Vergleich zur Kontrolle); Aktivität gegenüber Nutzpflanzen: S. italica ([7]; 50µg/R): - (weniger als 75 % Wachstumshemmung im Vergleich zur Kontrolle); Aktivität gegenüber Nutzpflanzen: L. sativum ([8]; 10µg/R): - (weniger als 75 % Wachstumshemmung im Vergleich zur Kontrolle); Aktivität gegenüber Nutzpflanzen: L. sativum ([8]; 20µg/R): - (weniger als 75 % Wachstumshemmung im Vergleich zur Kontrolle); Aktivität gegenüber Nutzpflanzen: L. sativum ([8]; 50µg/R): - (weniger als 75 % Wachstumshemmung im Vergleich zur Kontrolle); Aktivität gegenüber M. miehei ([9]; 10µg/mL): -; Aktivität gegenüber M. miehei ([9]; 50µg/mL): -; Aktivität gegenüber C. albicans ([10]; 10µg/mL): -; Aktivität gegenüber C. albicans ([10]; 50µg/mL): -
3 | Cc1cc(Cl)cc([Se]c2cc(Cl)cc(C)c2O)c1O [Verbindung 22, Bis(3-chlor-6-hydroxy-5-methylphenyl)selen] | > 75 | > 75 | > 75 | > 75 | 0 to 25 | > 75 | > 75 | > 75 | > 75 | > 75 | > 75 | > 75 | - | - | > 75 | > 75 | > 75 | > 75 | - | - | mikrobizide Wirksamkeit gegenüber B. cinerea [5]: mikrobizide Wirksamkeit; Aktivität gegenüber Nutzpflanzen: S. italica ([7]; 10µg/R): - (weniger als 75 % Wachstumshemmung im Vergleich zur Kontrolle); Aktivität gegenüber Nutzpflanzen: S. italica ([7]; 20µg/R): - (weniger als 75 % Wachstumshemmung im Vergleich zur Kontrolle); Aktivität gegenüber Nutzpflanzen: S. italica ([7]; 50µg/R): - (weniger als 75 % Wachstumshemmung im Vergleich zur Kontrolle); Aktivität gegenüber Nutzpflanzen: L. sativum ([8]; 10µg/R): - (weniger als 75 % Wachstumshemmung im Vergleich zur Kontrolle); Aktivität gegenüber Nutzpflanzen: L. sativum ([8]; 20µg/R): - (weniger als 75 % Wachstumshemmung im Vergleich zur Kontrolle); Aktivität gegenüber Nutzpflanzen: L. sativum ([8]; 50µg/R): - (weniger als 75 % Wachstumshemmung im Vergleich zur Kontrolle); Aktivität gegenüber M. miehei ([9]; 10µg/mL): -; Aktivität gegenüber M. miehei ([9]; 50µg/mL): -; Aktivität gegenüber C. albicans ([10]; 10µg/mL): -; Aktivität gegenüber C. albicans ([10]; 50µg/mL): -
